“Also recorded” adds a separate entry of the source. Marks after values point to notes of the source that are not given here.
Experiments:
[1] = Linagliptin alone or with low-dose exenatide for 28 days: plasma parameters and body composition in DIO rats
[2] = Pharmacokinetics of BI 1356 after multiple oral doses once daily for 12 days in patients with type 2 diabetes; conditions: for RA, AUC (accumulation ratio) / RA, Cmax (accumulation ratio): 12 days, type 2 diabetes patients, gMean
[3] = Day 29, DIO rats, vehicle pump + Linagliptin 3 mg/kg PO, mean ± SEM

SMILES: CC#CCn1c(N2CCC[C@@H](N)C2)nc2c1c(=O)n(Cc1nc(C)c3ccccc3n1)c(=O)n2C [BI 1356]
- Carcass Fat [1, 3]: 151.1 ± 7.3 g
- Carcass Protein [1, 3]: 63.8 ± 4.0 g
- Carcass Water [1, 3]: 212.6 ± 3.4 g
- GLP-1 (pM) [1, 3]: 5.72 ± 0.9^b pM
- Glucose [1, 3]: 8.72 ± 0.22 mM
- Insulin [1, 3]: 1.82 ± 0.36 ng/mL
- Leptin [1, 3]: 23.9 ± 2.5 ng/mL
- augmentation of the effect of a low dose of exenatide ([1]; linagliptin 3 mg/kg po in combination with exenatide 3 μg/kg/day sc, 28 days, DIO rats): does not augment the effect of a low dose of exenatide
- effect on body weight, daily food intake, plasma glucose, insulin or carcass fat compared to vehicle-treated controls ([1]; rat, in vivo): no effect
- body weight from day 11 after exenatide treatment (BI 1356 3 mg/kg po from Day 11 after exenatide 30 μg/kg/day Day 1-10, DIO rats, vs vehicle control): stabilize their body weight at the new weight level
- less fat put on than vehicle-treated counterparts during exenatide withdrawal (linagliptin 3 mg/kg po after exenatide withdrawal, DIO rats, p=0.07): 10.6%
- body fat weight regain after GLP-1R agonist cessation (replacement of exenatide 30 μg/kg/day (Day 1-10) with linagliptin 3 mg/kg po from Day 11, DIO rats): prevents body fat weight regain
- RA, AUC (accumulation ratio) ([2]; 1 mg once daily oral): 2.03
- RA, Cmax (accumulation ratio) ([2]; 1 mg once daily oral): 1.44
- RA, AUC (accumulation ratio) ([2]; 2.5 mg once daily oral): 1.37
- RA, Cmax (accumulation ratio) ([2]; 2.5 mg once daily oral): 1.25
- RA, AUC (accumulation ratio) ([2]; 5 mg once daily oral): 1.33
- RA, Cmax (accumulation ratio) ([2]; 5 mg once daily oral): 1.33
- RA, AUC (accumulation ratio) ([2]; 10 mg once daily oral): 1.18
- RA, Cmax (accumulation ratio) ([2]; 10 mg once daily oral): 1.40
- excretion via the kidney ([2]; therapeutic oral dose levels): < 7 % of the administered oral dose
- main route of excretion ([2]; therapeutic oral dose levels): mainly excreted via the liver; also recorded: primarily excreted unchanged via the bile
